Data on 12 compounds can be found in ChEMBL document CHEMBL1126328, “The rotenoid core structure: Modifications to define the requirements of the toxophore” (Bioorg Med Chem Lett, 1992).

Each structure is given as a SMILES string.

Broadly, the IC50 is the concentration at which inhibition is half-maximal. Low values mean higher potency, high ones lower potency.

One test has as its system Phormia regina. Kind of test: Relative activity against blowfly flight muscle submitochondrial NADH dehydrogenase compared to rotenone. The conditions noted are these: Muscle tissue.
Test [1] can be described thus: Inhibition of NADH dehydrogenase in blowfly flight-muscle submitochondrial preparation. The test is classed as tissue-based, Muscle tissue.
Test [2] is described as follows: Inhibition of NADH dehydrogenase in blowfly flight-muscle submitochondrial preparation experiment II. More on the design: species or system Phormia regina, Muscle tissue.
Test [3] is described as follows: Inhibition of NADH dehydrogenase in blowfly flight-muscle submitochondrial preparation experiment I. The test is classed as tissue-based, Phormia regina, Muscle tissue.

For `COc1ccc2c(c1)O[C@@H]1COc3cc(OC)c(OC)cc3[C@@H]1C2=O` [MUNDOSERONE], the Relative activity in the test with Phormia regina is 1.67%. For the same compound, half-maximal inhibition in test [1] (IC50) required 15 nM.
Taken in the same sequence, the figures for `O=C1c2ccccc2O[C@@H]2COc3ccccc3[C@H]12` were 0.005% and 5000 nM.
For `COc1cc2c(cc1OC)[C@@H]1[C@H](O)c3ccc4c(c3O[C@@H]1CO2)Cc1cc(C(C)C)oc1C4`, the Relative activity in the test on Phormia regina amounted to 1%. The compound further gave an IC50 in test [1] of 25 nM.
Regarding `COc1cc2c(cc1OC)[C@H]1C(=O)c3ccc4c(c3O[C@@H]1CO2)Cc1cc(C(C)C)oc1C4`, the Relative activity in the test on Phormia regina was 30%. This compound yielded an IC50 in test [1] of 5 nM.
On to `O=C1c2ccccc2O[C@@H]2CSc3ccccc3[C@H]12`, for which, in the test on Phormia regina, the Relative activity was determined as 0.0025%. For the same compound, the IC50 in test [1] was found to be 10000 nM.
Taken in the same sequence, the figures for `COc1cc2c(cc1OC)[C@H]1[C@H](O)c3ccc4c(c3O[C@@H]1CO2)Cc1cc(C(C)C)oc1C4` were 0.063% and 400 nM.
With `C=C(C)[C@H]1CC2=C(Cc3ccc4c(c3C2)O[C@@H]2COc3cc(OC)c(OC)cc3[C@@H]2C4=O)O1`, in the test on Phormia regina, the Relative activity turned out to be 100%. Also, the results for the concentration for half-maximal inhibition (IC50) in test [2] and in test [3] were 1.5 nM and 0.25 nM, respectively.
`COc1cc2c(cc1OC)[C@@H]1C(=O)c3ccc4c(c3O[C@@H]1CO2)Cc1cc(C(C)C)oc1C4` registered a Relative activity with Phormia regina of 75%. In test [1], the IC50 amounted to 2 nM.
Taken in the same sequence, the figures for `C=C(C)[C@H]1CC2=C(Cc3ccc4c(c3C2)O[C@@H]2COc3cc(OC)c(OC)cc3[C@H]2C4=O)O1` were 50% and 0.5 nM.
Taken in the same sequence, the figures for `COc1cc2c(cc1OC)[C@@H]1C(=O)c3ccccc3O[C@@H]1CO2` were 0.125% and 200 nM.
In the test on Phormia regina, `COc1cc2c(cc1OC)[C@@H]1C(=O)c3ccccc3O[C@@H]1CS2` gave a Relative activity of 0.083%. This compound showed a half-maximal inhibitory concentration (IC50) in test [1] of 300 nM.
Taken in the same sequence, the figures for `COc1ccc2c(c1)O[C@@H]1COc3ccccc3[C@@H]1C2=O` were 0.0031% and 8000 nM.
